Assays:
[1] = tested on: TNF-α; assay: Production of TNF-α by human monocytic cell line THP-1; assay type: cell-based; conditions: Homo sapiens, THP-1
Experimental: THP-1 cells are commercially available. Cultured cells can be placed in RPMI complete medium in microtitre plates (e.g. […] in 96 well plates) and after 24 hrs incubation, PMA (10 ng/mi) added to 96 well plate to differentiate THP-1 cells and to determine the effects on TNF-α and IL-10 production. The cells should be pre-treated with cucumber extract at, for example, 200 μg/ml to 25 μg/ml followed by 2 hr LPS (100 ng/ml) stimulation. Post incubation, the cell supernatant is aspirated from each of the wells into sterile micro centrifuge tubes and centrifuged at 1000 rpm for 2-3 mins to settle any cells if present. The cell supernatant is then used for evaluation of presence of TNF-α or IL-10 using ELISA. Sandwich ELISA plates coated with suitable antibody are widely available (e.g. R&D Systems, USA).
A second study indicated even greater activity for idoBR1 in human blood (significant at 0.01 μM) with pre-incubation. […] The data clearly indicate that idoBR1 can inhibit the production of TNF-α in human blood. Thus, it appears that it may be a potent anti-inflammatory agent. It also appears that it may be acting via a novel mechanism distinct from the steroid receptor pathways.

[2] = tested on: phosphorylated ERK 42/44; assay: Western blot of phosphorylated ERK p42/44 in LPS-stimulated THP-1 cells; assay type: cell-based, human; conditions: vs LPS = 1.00
Experimental: (§1) THP-1 cells were cultured in RPMI media supplemented with mercaptoethanol & glutamine to get 80% confluence in culture flasks, then they were aspirated and centrifuged at 1500 rpm for 5 mins. The cell pellet was then resuspended in 1 ml of RPMI complete media and counted conventionally using a hemocytometer. The cells (5×106) were incubated with PMA (10 ng/ml) in separate dishes to differentiate THP-1 cells. To determine the protein expression p38 & p42/44, THP-1 cells were pre-treated for 1 hr with idoBR1-100 μg/ml & 50 μg/ml and cucumber extract (Q-actin batch no. B17CF001)—200 μg/ml & 100 μg/ml, followed by 2 hr LPS (1 μg/ml) stimulation. Post incubation, the cells were harvested and whole protein was isolated.
(§2) Cell pellets were lysed, and the protein concentration was determined using the Bio-Rad protein determination assay (Bio-Rad). Total cell proteins were subjected to 8% polyacrylamide SDS gel electrophoresis followed by transfer onto polyvinylidene difluoride membranes (Thermoscientific). The membranes were probed with either mouse anti-phospho-p38 mAb (Thermoscientific) or mouse anti-phospho-p42/44 mAb (Thermoscientific), followed by horseradish peroxidase-conjugated goat anti-mouse polyclonal antibodies (Thermoscientific). All immunoblots were visualized by ECL (Amersham Biosciences).

[3] = tested on: IL-1β; assay: IL-1β ELISA in LPS stimulated THP-1 cells; assay type: cell-based, human; conditions: for % reduction in IL-1 β levels: vs LPS control
Experimental: The cells in an 80% confluence culture flask were aspirated and centrifuged at 1500 rpm for 5 mins. The cell pellet was then resuspended in 1 ml of RPMI complete media and 1×10^5 cells/well seeded to each well of the 96 well microtiter plate. After 24 hrs incubation, PMA (10 ng/ml) was added to the 96 well plate to differentiate THP-1 cells to determine the TNF-α production, THP-1 cells were pretreated for 1 hr with idoBR1 or cucumber extract-Q-actin (batch no. […] Post incubation, the cell supernatant from each of the wells was aspirated into sterile micro centrifuge tubes and centrifuged at 1000 rpm for 2-3 mins. The cell supernatant was then used for evaluation of presence of cytokines using ELISA.
ELISA plates coated with antibodies for IL-12, IL-1β, or IL-10 (R&D Systems, USA) were used for the following study. To each well 50 μL of Assay Diluent RD1F was added after mixing well. 200 μL of sample (idoBR1 or extract), or control per well was added and covered with an adhesive strip. Following incubation for 2 hours at room temperature each well was aspirated and washed 4 times with Wash Buffer (400 μl). After the last wash, any remaining Wash Buffer was removed by aspirating or decanting. The plates were inverted and blotted against clean paper towels. To each well 200 μl of appropriate human conjugate was added and these then covered with a new adhesive strip and incubated for 1 hour at room temperature. The aspiration/wash was then repeated. 200 μL of Substrate Solution was then added to each well and further incubated for 20 minutes at room temperature protected from light. 50 μL of Stop Solution was added to each well. The colour in the wells was changed from blue to yellow. OD was measured within 30 minutes at 450 nm.

[4] = tested on: phosphorylated p38; assay: Western blot of phosphorylated p38 in LPS-stimulated THP-1 cells; assay type: cell-based, human; conditions: vs LPS = 1.00
Experimental: as §1, §2

[5] = tested on: sialidase (including NanH from T. forsythia); assay: Sialidase assay with methylumbelliferyl-N-acetylneuraminic acid; assay type: biochemical
Experimental: Sialidase assays used 2.8 mM and 0.28 mM inhibitor (or water without inhibitor) and 2.5 nM sialidase (including NanH from T. forsythia) incubated in the presence of 0.1 mM methylumbelliferyl-N-acetyineuraminic acid, pH 7.2 in 20 mM sodium phosphate buffer. Reactions were stopped at 30 seconds and 60 seconds via addition of pH 10.5 60 mM sodium carbonate buffer. Release of fluorogenic methylumbelliferone (MU) was quantified by measuring fluorescence emission at 450 nm, excitation 350 nm. Percentage sialidase activity was expressed as the change in fluorescence between 30 seconds and 60 seconds compared to that of a reaction without inhibitor. Reactions were carried out in triplicate.

`O=C(O)[C@@H]1NC[C@H](O)[C@@H](O)[C@@H]1O` [idoBR1, (2R,3R,4R,5S)-3,4,5-trihydroxypiperidine-2-carboxylic acid] was tested, and the inhibition at 10 µM ([1]; 10 μM) was over 50%, the IC50 ([1]; 48 hr preincubation, read-out: IC50 for inhibition of the production of TNF-α by THP-1 cells) was 27 nM and the “Relative expression of p42/44” value ([2]; 50 μg/ml) was 0.80. For the same compound, the “Relative expression of p42/44” value ([2]; 100 μg/ml) was 0.76, the IL-1β ([3]; 12.5 μg/mL) was 133.30 pg/mL and the “% reduction in IL-1 β levels” value ([3]; 12.5 μg/mL) was 9.31%. The IL-1β ([3]; 25 μg/mL) was 127.63 pg/mL, the “% reduction in IL-1 β levels” value ([3]; 25 μg/mL) was 13.17% and the IL-1β ([3]; 50 μg/mL) was 120.36 pg/mL. The “% reduction in IL-1 β levels” value ([3]; 50 μg/mL) was 18.12%, the IL-1β ([3]; 100 μg/mL) was 111.60 pg/mL and the “% reduction in IL-1 β levels” value ([3]; 100 μg/mL) was 24.07%. The “Relative expression of p38” value ([4]; 50 μg/ml) was 0.88, the “Relative expression of p38” value ([4]; 100 μg/ml) was 0.80 and the “inhibition of the sialidase” value ([5]; 0.28 mM inhibitor) was 42%. For the same compound, the “inhibition of the sialidase” value ([5]; 2.8 mM inhibitor) was 36%.

From US12558348B2, “Bioactive phytochemicals” (Phytoquest Limited, priority 2019, dated 2026)
